The values that follow come from patent publication US20160052955A1, “[…] INHIBITORS FOR TREATING CANCERS” (SLOAN-KETTERING INSTITUTE FOR CANCER RESEARCH, priority 2013, published 2016).

Assay type in all cases: biochemical
The target of one assay is T1, CARM1 (19-608) (Homo sapiens, UniProt Q86X55).
T1 construct: CARM1 (19-608)
T1 sequence (Q86X55 19-608): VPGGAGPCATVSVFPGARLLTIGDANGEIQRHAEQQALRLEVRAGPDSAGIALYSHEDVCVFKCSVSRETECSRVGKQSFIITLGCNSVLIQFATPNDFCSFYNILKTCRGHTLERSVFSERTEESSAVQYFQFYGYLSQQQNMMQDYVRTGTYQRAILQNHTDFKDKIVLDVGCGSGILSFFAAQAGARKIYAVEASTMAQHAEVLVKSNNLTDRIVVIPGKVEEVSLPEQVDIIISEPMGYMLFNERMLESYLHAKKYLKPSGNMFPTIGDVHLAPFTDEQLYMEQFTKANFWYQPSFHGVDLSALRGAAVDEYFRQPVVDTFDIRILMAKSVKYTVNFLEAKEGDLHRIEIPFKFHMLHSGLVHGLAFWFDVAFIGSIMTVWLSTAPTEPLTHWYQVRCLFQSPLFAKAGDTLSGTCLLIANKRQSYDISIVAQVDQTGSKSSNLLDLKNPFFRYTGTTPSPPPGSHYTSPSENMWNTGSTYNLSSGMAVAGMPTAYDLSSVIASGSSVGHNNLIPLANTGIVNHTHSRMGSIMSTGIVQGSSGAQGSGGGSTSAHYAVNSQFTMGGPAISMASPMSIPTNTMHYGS
Description: Filter-paper methyltransferase assay, CARM1.

A further assay addresses T2, SMYD2 Full-length (Homo sapiens, UniProt Q9NRG4).
T2 construct: SMYD2 Full-length
The experiment in a line: Filter-paper methyltransferase assay, SMYD2. The settings on record: substrate p53 (360-393 aa), 50 nM enzyme, 10 h; read-out: IC50 SMYD2-FL. How it is done:
(§1) Methylation Reaction. The 20 μL methylation reaction was carried out at ambient temperature using two mixtures: A. 10 μl of enzyme mixture in the assay buffer containing 50 mM Hepes (pH=8.0), 0.005% Tween-20, 5 μg/ml BSA and 1 mM TCEP; B. 10 μl of a mixture of […], 0.15 μCi [^3H-Me]-SAM cofactor and 3 μM of the corresponding peptide substrate in the same assay buffer. After A and B were mixed for a designated time period, the reaction mixture was examined with our filter-paper assay.
Filter-paper Assay. This assay relies on Whatman P-81 filter paper, which binds peptides but not SAM. Protein Methyl Transferases (PMTs) transfer ^3H-Me of [^3H-Me]-SAM to peptide substrates and the resultant ^3H-methylated, filter-paper-bound peptide is quantified with a scintillation counter. Briefly, 6 μl of the methylation reaction was spotted onto Whatman P-81 phosphocellulose filter paper (1.2×1.2 cm^2) to immobilize the ^3H-labeled peptide. After drying in air for 20 min, the filter paper was immersed into 20 mL of 50 mM Na2CO3/NaHCO3 buffer (pH=9.2), and washed 5 times for 10 min each time. The washed filter paper was then transferred to a 20 ml scintillation vial containing 1 mL of distilled water and 10 mL of Ultima Gold scintillation cocktail or 7 mL scintillation vial containing 0.5 mL od distilled water and 5 mL of scintillation cocktail (PerkinElmer). The radioactivity was quantified by a Beckman LS6000IC liquid scintillation counter.
Dose-response Curves and IC50. Twice the PMT concentration was incubated for 10 min with varied concentration of inhibitors (0.1-400 μM stocks), into which 10 μl of the PMT peptide substrate and radioactive cofactor (3 μM of the corresponding peptide and 1.5 μM, 0.15 μCi [^3H-Me]-SAM) were added. After incubating the reaction mixture for the respective reaction time, the conversion was quantified with the filter paper assay as described above. The inhibition was expressed as the percentage between the high control (no inhibition) and the low control (no enzyme) as follows: Percentage Inhibition=[(high control−reading)/(high control−low control)]×100%. Each experiment was performed in triplicate. The IC50 values were obtained by fitting inhibition percentage versus inhibitor concentration using GraphPad Prism5 software.

A further assay deals with DOT1L (Homo sapiens, UniProt Q8TEK3). The experiment in a line: Filter-paper methyltransferase assay, DOT1L.
The next assay has as its target T3, PRMT1 (10-352) (Homo sapiens, UniProt Q99873).
T3 construct: PRMT1 (10-352)
Description: Filter-paper methyltransferase assay, PRMT1. The settings on record: 100 nm enzyme, substrate RGG, 1.5 h.

The target of the next assay is T4, SMYD3 (Homo sapiens, UniProt Q9H7B4).
T4 sequence (Q9H7B4 1-428): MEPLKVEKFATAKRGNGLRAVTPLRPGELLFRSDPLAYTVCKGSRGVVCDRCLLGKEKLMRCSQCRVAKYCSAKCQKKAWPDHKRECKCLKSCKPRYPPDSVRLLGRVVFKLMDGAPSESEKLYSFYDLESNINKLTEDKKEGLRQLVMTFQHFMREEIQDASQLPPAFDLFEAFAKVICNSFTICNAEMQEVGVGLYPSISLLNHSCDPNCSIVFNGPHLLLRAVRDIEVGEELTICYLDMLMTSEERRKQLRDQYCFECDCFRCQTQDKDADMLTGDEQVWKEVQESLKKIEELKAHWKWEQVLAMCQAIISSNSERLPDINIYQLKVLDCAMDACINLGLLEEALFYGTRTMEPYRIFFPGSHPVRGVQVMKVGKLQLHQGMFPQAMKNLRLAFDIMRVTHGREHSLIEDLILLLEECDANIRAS
The experiment in a line: Filter-paper methyltransferase assay, SMYD3. Particulars: substrate MAP3K2 (1-350 aa), 125 nM enzyme, 2 h. How it is done:
as §1
Filter-paper Assay. This assay relies on Whatman P-81 filter paper, which binds peptides but not SAM. Protein Methyl Transferases (PMTs) transfer ^3H-Me of [^3H-Me]-SAM to peptide substrates and the resultant ^3H-methylated, filter-paper-bound peptide is quantified with a scintillation counter. […] The radioactivity was quantified by a Beckman LS6000IC liquid scintillation counter.
Dose-response Curves and IC50. […] After incubating the reaction mixture for the respective reaction time, the conversion was quantified with the filter paper assay as described above. The inhibition was expressed as the percentage between the high control (no inhibition) and the low control (no enzyme) as follows: Percentage Inhibition=[(high control−reading)/(high control−low control)]×100%. […]

For a further assay, the target named is T5, SUV39H2 (112-410) (Homo sapiens, UniProt Q9H5I1).
T5 construct: SUV39H2 (112-410)
The experiment in a line: Filter-paper methyltransferase assay, SUV39H2. The settings on record: substrate H3 (1-21 aa), 5 nM enzyme, 4 h; read-out: IC50 SUV39H2.

The term pIC50 denotes the IC50 on a negative log10 scale, so that one unit is a factor of ten.

pIC50: −log10 of the molar value.

Chain of DOT1L (Q8TEK3 whole entry): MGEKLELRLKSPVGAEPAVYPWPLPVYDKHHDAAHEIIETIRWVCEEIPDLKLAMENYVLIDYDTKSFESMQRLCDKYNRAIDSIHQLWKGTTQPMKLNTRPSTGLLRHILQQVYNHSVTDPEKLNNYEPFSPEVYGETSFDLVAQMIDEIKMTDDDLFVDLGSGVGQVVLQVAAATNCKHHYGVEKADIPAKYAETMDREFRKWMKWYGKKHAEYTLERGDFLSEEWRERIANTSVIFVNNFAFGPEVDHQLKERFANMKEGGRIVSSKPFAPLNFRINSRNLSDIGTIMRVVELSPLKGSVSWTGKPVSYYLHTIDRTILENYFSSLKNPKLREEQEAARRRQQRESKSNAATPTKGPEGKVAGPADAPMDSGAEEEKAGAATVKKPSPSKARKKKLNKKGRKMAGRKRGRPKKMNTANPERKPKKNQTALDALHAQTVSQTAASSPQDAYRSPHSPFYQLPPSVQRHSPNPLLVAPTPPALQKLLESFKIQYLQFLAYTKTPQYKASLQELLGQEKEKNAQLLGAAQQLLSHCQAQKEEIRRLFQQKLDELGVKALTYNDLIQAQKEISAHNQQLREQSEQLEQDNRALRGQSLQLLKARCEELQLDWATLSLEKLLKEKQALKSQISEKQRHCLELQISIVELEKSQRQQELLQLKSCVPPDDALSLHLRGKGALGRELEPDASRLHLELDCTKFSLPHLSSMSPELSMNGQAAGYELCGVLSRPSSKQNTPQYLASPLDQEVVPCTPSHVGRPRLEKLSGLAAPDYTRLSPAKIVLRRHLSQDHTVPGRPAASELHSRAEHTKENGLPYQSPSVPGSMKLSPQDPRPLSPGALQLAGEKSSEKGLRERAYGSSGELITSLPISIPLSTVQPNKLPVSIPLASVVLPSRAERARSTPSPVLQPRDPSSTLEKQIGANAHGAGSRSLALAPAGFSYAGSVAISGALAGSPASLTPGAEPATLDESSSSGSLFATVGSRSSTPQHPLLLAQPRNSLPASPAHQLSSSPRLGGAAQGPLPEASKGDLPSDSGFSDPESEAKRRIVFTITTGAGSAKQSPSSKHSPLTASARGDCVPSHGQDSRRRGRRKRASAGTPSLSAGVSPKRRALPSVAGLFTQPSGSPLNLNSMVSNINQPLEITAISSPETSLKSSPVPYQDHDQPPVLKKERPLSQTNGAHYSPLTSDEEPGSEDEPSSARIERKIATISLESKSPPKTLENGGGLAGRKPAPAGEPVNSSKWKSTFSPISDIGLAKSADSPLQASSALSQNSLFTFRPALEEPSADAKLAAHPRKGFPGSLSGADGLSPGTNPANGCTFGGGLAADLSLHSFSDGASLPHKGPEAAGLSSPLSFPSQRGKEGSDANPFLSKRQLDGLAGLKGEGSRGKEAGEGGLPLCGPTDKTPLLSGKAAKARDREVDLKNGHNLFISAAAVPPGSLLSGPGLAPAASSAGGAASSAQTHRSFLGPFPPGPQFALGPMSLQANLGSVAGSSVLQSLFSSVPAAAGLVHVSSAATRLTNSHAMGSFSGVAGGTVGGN
T2 sequence (Q9NRG4 whole entry): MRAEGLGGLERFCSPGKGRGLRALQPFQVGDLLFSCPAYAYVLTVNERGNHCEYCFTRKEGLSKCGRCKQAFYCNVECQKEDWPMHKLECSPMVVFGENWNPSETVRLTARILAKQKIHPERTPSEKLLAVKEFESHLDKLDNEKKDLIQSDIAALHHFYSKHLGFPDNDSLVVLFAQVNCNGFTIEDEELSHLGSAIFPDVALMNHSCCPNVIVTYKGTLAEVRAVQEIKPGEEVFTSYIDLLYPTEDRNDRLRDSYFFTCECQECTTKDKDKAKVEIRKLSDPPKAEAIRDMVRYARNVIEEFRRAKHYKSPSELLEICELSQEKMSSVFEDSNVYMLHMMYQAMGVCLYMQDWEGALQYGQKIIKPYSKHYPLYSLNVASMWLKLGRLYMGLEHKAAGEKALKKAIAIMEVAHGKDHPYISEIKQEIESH
T5 sequence (Q9H5I1 112-410): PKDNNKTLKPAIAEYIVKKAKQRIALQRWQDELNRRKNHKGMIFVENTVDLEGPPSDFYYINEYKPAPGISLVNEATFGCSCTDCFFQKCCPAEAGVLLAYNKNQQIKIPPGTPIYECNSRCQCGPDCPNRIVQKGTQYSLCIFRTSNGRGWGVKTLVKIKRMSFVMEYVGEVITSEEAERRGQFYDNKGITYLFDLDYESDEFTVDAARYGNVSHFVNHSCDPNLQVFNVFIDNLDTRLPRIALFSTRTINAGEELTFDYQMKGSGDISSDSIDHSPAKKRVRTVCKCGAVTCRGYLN
T3 sequence (Q99873 10-352 isoform Q99873-3): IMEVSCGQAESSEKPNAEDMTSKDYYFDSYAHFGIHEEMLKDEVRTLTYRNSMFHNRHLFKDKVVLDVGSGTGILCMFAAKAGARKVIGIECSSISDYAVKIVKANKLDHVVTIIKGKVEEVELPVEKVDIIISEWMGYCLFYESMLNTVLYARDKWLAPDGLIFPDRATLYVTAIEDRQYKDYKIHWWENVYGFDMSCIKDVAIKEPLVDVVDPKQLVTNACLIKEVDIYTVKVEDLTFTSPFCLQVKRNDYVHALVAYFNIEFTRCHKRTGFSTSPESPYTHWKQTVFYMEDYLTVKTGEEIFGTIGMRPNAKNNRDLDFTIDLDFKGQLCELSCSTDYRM

Regarding `CC(C)(C)c1ccc(NC(=O)NCCC[C@H](CNCc2ccccc2)C[C@H]2O[C@@H](n3cnc4c(N)ncnc43)[C@@H](O)C2O)cc1` (some centres unmarked) [Example 29], the “inhibitory activity to CARM1 (in words)” value at CARM1 (19-608) was “remarkable inhibitory activity”. Further, the pIC50 on CARM1 (19-608) (substrate H3 (1-40 aa), 300 nM enzyme, 7 h, read-out: IC50 CARM1) was > 6.70; on SMYD2 Full-length, < 4.00; on DOT1L (substrate nucleosomes, 50 nM enzyme, 6 h), 6.77; against PRMT1 (10-352) it was < 4.00; against SMYD3, < 4.00; at SUV39H2 (112-410), ~5.00. Besides, at DOT1L, the “inhibitory activity to DOT1L (in words)” value is given as “remarkable inhibitory activity”.
